Measurements: US11273153B2, “MAPK inhibitors” (EverBrilliant Pharma Pty Ltd, priority 2014, dated 2022)
Where two headings read alike, the source gives them in different places.

Assays:
[1] = target: p38α MAPK activation (phosphorylation) by MKK6 (Homo sapiens (Human), UniProt Q16539); experiment: In vitro activation assay (phosphorylation of p38α MAPK by MKK6, western blot); type: biochemical
Description: The assay was analysed by immunoblotting using antibodies against pan p38 MAPK and activated (phosphorylated) p38α MAPK. […] The reaction is initiated by the addition of ATP and MKK6 and proceeds for 15 minutes.
The assay was analysed by immunoblotting using antibodies against pan p38 MAPK and phosphorylated p38α MAPK.
The reaction was started by the addition of active MKK6 (5 ng) and ATP (100 μM). After 30 minutes incubation at room temperature, the reaction was stopped with ethylenediaminetetraacetic acid (EDTA) (10 mM). Phosphorylation of p38 MAPK was analysed by Western blotting.
Reaction samples were mixed 1:1 with Laemmli loading buffer, including β-mercaptoethanol (Biorad). Samples were heated at 95° C. for 5 minutes and 80 ng of protein was resolved using sodium dodecyl sulfate polyacrylamide gel electrophoresis (SDS-PAGE) gels (Biorad) at 200 V for 90 minutes. Proteins were transferred (100 V, 1 hour) to a polyvinylidene difluoride (PVDF) membrane (Merck). Membranes were incubated in blocking buffer (5% skim milk in Tris-buffered saline with Tween 20 (TBST), 1 hour, room temperature) and washed in TBST. Membranes were incubated with primary antibodies against total and phosphorylated p38 MAPK (1:1,000, Cell Signaling Technology) overnight at 4° C. Membranes were washed 4×15 minutes in TBST and probed with a secondary anti-mouse antibody at 1:2,000 dilution for 1 hour at room temperature, followed by washing in TBST (4×15 minutes). Signal detection was done with Western Lightning plus-ECL enhanced chemiluminescent substrate (Perkin Elmer) with the ChemiDoc Imaging System (BioRad).

[2] = target: active phosphorylated p38α MAPK (Homo sapiens (Human), UniProt Q16539); experiment: Fluorescence polarisation (FP) binding assay, active enzyme
Description: (§1) A number of compounds were also assessed for the inhibition of p38α MAPK activity (www.kinase-screen.mrc.ac.uk) in which a radioactive (^33P-labelled ATP) filter binding assay was used to directly measure phosphate incorporation. Table 1 summarises the binding affinities of the synthesised compounds to both forms of the enzyme as well as the inhibitory activities against p38α MAPK. By way of enabling a comparison with a non-thiophene compound the biological testing was also carried out for known inhibitor RWJ67657, shown in table 1.
(§2) FP signals were measured with a PHERAstar microplate reader (BMG Labtech) using black, low-binding half-area 96 well plates (Corning). Each binding data point was carried out in duplicate or triplicate. Data were recorded in millipolarisation (mP) units and measured at an excitation wavelength of 485 nm and an emission wavelength of 520 nm. Tris(hydroxymethyl)aminomethane (Tris) assay buffer was used in all binding experiments and consisted of 10 mM Tris, […] potassium chloride, and 3.5 mM 3-((3-cholamidopropyl)dimethylammonium)-1-propanesulfonate (Chaps) at pH 8.0.
(§3) Test compounds were prepared from dimethylsulfoxide stocks (10 mM). […] Plates were incubated at room temperature for 1 hour and FP signals were recorded. For binding experiments to active p38α MAPK, the FP signals were recorded after 2 hours incubation at room temperature. Data is represented as mean±SEM from two to three independent experiments.

[3] = target: inactive non-phosphorylated p38α MAPK (Homo sapiens (Human), UniProt Q16539); experiment: Fluorescence polarisation (FP) binding assay, inactive enzyme
Description: as §1, §2, §3

[4] = target: p38α MAPK (Homo sapiens (Human), UniProt Q16539); experiment: Radioactive (33P-labelled ATP) filter binding assay of p38α MAPK activity; type: biochemical
Description: as §1

[5] = Table 5, read-out: Ki ± SEM (μM) to active p38α MAPK
[6] = Table 6, read-out: Ki ± SEM (μM) to active p38α
[7] = read-out: Ki to active p38α MAPK
[8] = Table 5, read-out: Ki ± SEM (μM) to inactive p38α MAPK
[9] = Table 6, read-out: Ki ± SEM (μM) to inactive p38α
[10] = Table 1, read-out: Ki (μM, mean ± SEM) active p38α
[11] = Table 1, average of two experiments, read-out: IC50 (μM, mean)
[12] = read-out: IC50 (inhibitory activity against p38α MAPK)
[13] = Table 1, read-out: Ki (μM, mean ± SEM) inactive p38α

Chain of p38α MAPK activation (phosphorylation) by MKK6 (Q16539 whole entry): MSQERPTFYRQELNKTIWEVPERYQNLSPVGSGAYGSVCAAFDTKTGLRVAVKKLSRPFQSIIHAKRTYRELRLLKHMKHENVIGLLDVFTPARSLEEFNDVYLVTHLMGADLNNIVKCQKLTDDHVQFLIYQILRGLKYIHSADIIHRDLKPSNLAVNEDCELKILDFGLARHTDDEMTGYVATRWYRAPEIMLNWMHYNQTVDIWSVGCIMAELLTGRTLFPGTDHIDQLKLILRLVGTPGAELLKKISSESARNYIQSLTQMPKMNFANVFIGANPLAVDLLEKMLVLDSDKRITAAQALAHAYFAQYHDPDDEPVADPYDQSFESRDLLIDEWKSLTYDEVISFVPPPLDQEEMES
Chain of inactive non-phosphorylated p38α MAPK (Q16539 whole entry): as above
Chain of p38α MAPK (Q16539 whole entry): as above
Chain of active phosphorylated p38α MAPK (Q16539 whole entry): as above

| SMILES | Ki [2, 5] | Ki [2, 6] | Ki [3, 8] | Ki [3, 9] | also measured |
| --- | --- | --- | --- | --- | --- |
| Fc1ccc(-c2scc(CCCc3ccccc3)c2-c2ccncc2)cc1 [Compound 4.18, 4-(2-(4-Fluorophenyl)-4-(3-phenylpropyl)thiophen-3-yl)pyridine] |  | 0.72 ± 0.03 µM |  | 1.5 ± 0.5 µM | Ki [2, 10]: 0.72 ± 0.03 µM; IC50 [4, 11]: 0.27 µM; IC50 ([4]; Table 6, read-out: IC50 (mean)): 0.27 µM; IC50 [4, 12]: 0.27 µM; Ki [3, 13]: 1.5 ± 0.5 µM |
| OC(CCc1ccccc1)c1csc(-c2ccc(F)cc2)c1-c1ccncc1 (stereo not drawn) [Compound 4.17, 1-(5-(4-Fluorophenyl)-4-(pyridin-4-yl)thiophen-3-yl)-3-phenylpropan-1-ol] |  | 0.99 ± 0.09 µM |  | 1.9 ± 0.3 µM | Ki [2, 10]: 0.99 ± 0.09 µM; IC50 [4, 11]: 0.26 µM; IC50 ([4]; Table 6, read-out: IC50 (mean)): 0.26 µM; IC50 [4, 12]: 0.26 µM; Ki [3, 13]: 1.9 ± 0.3 µM |
| OCCC#Cc1sc(-c2ccc(F)cc2)c(-c2ccncc2)c1C(O)CCc1ccccc1 (stereo not drawn) [Compound 4.6, 4-(5-(4-Fluorophenyl)-3-(1-hydroxy-3-phenylpropyl)-4-(pyridin-4-yl)thiophen-2-yl)but-3-yn-1-ol] |  | 3.9 µM |  | > 10 µM | Ki [2, 10]: 3.85 µM; IC50 [4, 11]: 4.72 µM; IC50 ([4]; Table 6, read-out: IC50 (mean)): 4.72 µM; IC50 [4, 12]: 4.72 µM; Ki [3, 13]: > 10 µM |
| O=C(O)c1cccc(-c2c(C#CCCO)sc(-c3ccc(F)cc3)c2-c2ccncc2)c1 [Compound 3.31, 3-(5-(4-Fluorophenyl)-2-(4-hydroxybut-1-yn-1-yl)-4-(pyridin-4-yl)thiophen-3-yl)benzoic acid] |  | 7.1 µM |  | > 10 µM |  |
| Fc1ccc(-c2scc(C#CCc3ccccc3)c2-c2ccncc2)cc1 [Compound 4.19, 4-(2-(4-Fluorophenyl)-4-(3-phenylprop-1-yn-1-yl)thiophen-3-yl)pyridine] |  | 9.4 µM |  | > 10 µM | Ki [2, 10]: 9.44 µM; binding to p38α MAPK, in words [3]: complete loss of binding; Ki [3, 13]: > 10 µM |
| OCCC#Cc1sc(-c2ccc(F)cc2)c(-c2ccncc2)c1-c1cccc(CO)c1 [Compound 3.33, 4-(5-(4-Fluorophenyl)-3-(3-(hydroxymethyl)phenyl)-4-(pyridin-4-yl)thiophen-2-yl)but-3-yn-1-ol] |  | 1.3 ± 0.2 µM |  | > 10 µM |  |
| O=C(Nc1cccc(-c2c(C#CCCO)sc(-c3ccc(F)cc3)c2-c2ccncc2)c1)c1ccccc1 [Compound 3.43, N-(3-(5-(4-fluorophenyl)-2-(4-hydroxybut-1-yn-1-yl)-4-(pyridin-4-yl)thiophen-3-yl)phenyl)benzamide] |  | > 10 µM |  | > 10 µM |  |
| OCCC#Cc1sc(-c2ccc(F)cc2)c(-c2ccncc2)c1-c1ccc(Cl)cc1 [Compound 3.51, 4-(3-(4-Chlorophenyl)-5-(4-fluorophenyl)-4-(pyridin-4-yl)thiophen-2-yl)but-3-yn-1-ol] |  | > 10 µM |  | > 10 µM |  |
| CN(C)c1ccc(-c2c(C#CCCO)sc(-c3ccc(F)cc3)c2-c2ccncc2)cc1 [Compound 3.49, 4-(3-(4-(Dimethylamino)phenyl)-5-(4-fluorophenyl)-4-(pyridin-4-yl)thiophen-2-yl)but-3-yn-1-ol] |  | > 10 µM |  | > 10 µM |  |
| Cc1ccc(S(=O)(=O)Nc2cccc(-c3c(C#CCCO)sc(-c4ccc(F)cc4)c3-c3ccncc3)c2)cc1 [Compound 3.45, N-(3-(5-(4-fluorophenyl)-2-(4-hydroxybut-1-yn-1-yl)-4-(pyridin-4-yl)thiophen-3-yl)phenyl)-4-methylbenzenesulfonamide] |  | > 10 µM |  | > 10 µM |  |
| OCCC#Cc1sc(-c2ccc(F)cc2)c(-c2ccncc2)c1-c1ccc(F)cc1 [Compound 3.50, 4-(3,5-bis(4-Fluorophenyl)-4-(pyridin-4-yl)thiophen-2-yl)but-3-yn-1-ol] |  | 0.9 ± 0.4 µM |  | > 10 µM |  |
| CC(=O)Nc1ccc(-c2c(C#CCCO)sc(-c3ccc(F)cc3)c2-c2ccncc2)cc1 [Compound 3.42, N-(4-(5-(4-fluorophenyl)-2-(4-hydroxybut-1-yn-1-yl)-4-(pyridin-4-yl)thiophen-3-yl)phenyl)acetamide] |  | > 10 µM |  | > 10 µM |  |

More lines, main results first:

| Ki [2, 5] | Ki [2, 6] | Ki [3, 8] | Ki [3, 9] | SMILES | also measured |
| --- | --- | --- | --- | --- | --- |
| 0.67 ± 0.03 µM | 0.67 ± 0.03 µM | 2.7 ± 0.3 µM | 2.7 ± 0.3 µM | O=C(CCCO)c1cc(-c2ccncc2)c(-c2ccc(F)cc2)s1 [Compound 5.10, 1-(5-(4-Fluorophenyl)-4-(pyridin-4-yl)thiophen-2-yl)-4-hydroxybutan-1-one] | inhibition of p38α MAPK activation (phosphorylation) ([1]; 10 μM concentration): inhibition of p38α MAPK activation; Ki [2, 7]: 0.67 µM |
| 0.013 ± 0.006 µM | 0.013 ± 0.006 µM | 0.21 ± 0.04 µM | 0.21 ± 0.04 µM | OCCC#Cc1nc(-c2ccc(F)cc2)c(-c2ccncc2)n1CCCc1ccccc1 [RWJ67657, reference compound] | inhibition of p38α MAPK activation (phosphorylation) ([1]; 10 μM concentration): inhibition of p38α MAPK activation; Ki [2, 10]: 0.013 ± 0.006 µM; Ki [3, 13]: 0.21 ± 0.04 µM |
| 0.21 ± 0.01 µM | 0.21 ± 0.01 µM | 0.66 ± 0.06 µM | 0.66 ± 0.06 µM | Nc1nc(F)c(F)c(-c2cc(-c3ccncc3)c(-c3ccc(F)cc3)s2)c1F [Compound 5.20, 3,5,6-Trifluoro-4-(5-(4-fluorophenyl)-4-(pyridin-4-yl)thiophen-2-yl)pyridin-2-amine] | inhibition of p38α MAPK activation (phosphorylation) ([1]; 10 μM concentration): inhibition of p38α MAPK activation; Ki [2, 7]: 0.2 µM |
| 0.16 ± 0.02 µM | 0.16 ± 0.02 µM | 0.47 ± 0.01 µM | 0.47 ± 0.01 µM | Nc1nc(N)c(F)c(-c2cc(-c3ccncc3)c(-c3ccc(F)cc3)s2)c1F [Compound 5.21, 3,5-Difluoro-4-(5-(4-fluorophenyl)-4-(pyridin-4-yl)thiophen-2-yl)pyridine-2,6-diamine] | inhibition of p38α MAPK activation (phosphorylation) ([1]; 1 μM concentration): significant inhibition; inhibition of p38α MAPK activation (phosphorylation) ([1]; 10 μM concentration): inhibition of p38α MAPK activation; Ki [2, 7]: 0.16 µM; Ki ([3]; read-out: Ki to inactive non-phosphorylated p38α MAPK): 0.47 µM |
| 2.8 ± 0.1 µM | 2.8 ± 0.1 µM | 5 ± 2 µM | 5 ± 2 µM | O=C(c1ccccc1)c1cc(-c2ccncc2)c(-c2ccc(F)cc2)s1 [Compound 5.16, (5-(4-Fluorophenyl)-4-(pyridin-4-yl)thiophen-2-yl) (phenyl)methanone] | inhibition of p38α MAPK activation (phosphorylation) ([1]; 10 μM concentration): inhibition of p38α MAPK activation |
| 0.25 ± 0.04 µM | 0.25 ± 0.04 µM | 0.98 ± 0.02 µM | 0.98 ± 0.02 µM | OCCCCc1cc(-c2ccncc2)c(-c2ccc(F)cc2)s1 [Compound 5.9, 4-(5-(4-Fluorophenyl)-4-(pyridin-4-yl)thiophen-2-yl)butan-1-ol] | inhibition of p38α MAPK activation (phosphorylation) ([1]; 10 μM concentration): inhibition of p38α MAPK activation; Ki [2, 7]: 0.25 µM |
| 1.4 µM | 1.4 µM | 17 ± 2 µM | 17 ± 2 µM | O=C(O)c1cc(-c2ccncc2)c(-c2ccc(F)cc2)s1 [Compound 5.12, 5-(4-Fluorophenyl)-4-(pyridin-4-yl)thiophene-2-carboxylic acid] |  |
| 2.2 µM | 2.2 µM | 6 ± 1 µM | 6 ± 1 µM | CCOC(=O)c1cc(-c2ccncc2)c(-c2ccc(F)cc2)s1 [Compound 5.11, Ethyl 5-(4-fluorophenyl)-4-(pyridin-4-yl)thiophene-2-carboxylate] |  |
| 0.19 ± 0.04 µM | 0.19 ± 0.04 µM | 1.1 ± 0.2 µM | 1.1 ± 0.2 µM | NCCC#Cc1cc(-c2ccncc2)c(-c2ccc(F)cc2)s1 [Compound 5.7, 4-(5-(4-Fluorophenyl)-4-(pyridin-4-yl)thiophen-2-yl)but-3-yn-1-amine] | Ki [2, 7]: 0.19 µM |
